# Results from patent US20240251788A1, “HERBICIDE/SAFENER COMBINATION BASED ON SAFENERS FROM THE CLASS OF SUBSTITUTED [(1,5-DIPHENYL-1H-1,2,4-TRIAZOL-3-YL)OXY]ACETIC ACIDS AND THEIR SALTS” (Bayer Aktiengesellschaft, priority 2021, published 2024).
# Legend:
# [1] = system: summer wheat crop plant (TRZAS; cv. Triso); assay: Reduction in herbicide damage to summer wheat by safener, greenhouse post-emergence application, visual scoring; format: in vivo; design: key to Reduction in the damage by safener (difference): difference in % visual damage (0-100% scale vs untreated) due to safener; details: summer wheat (TRZAS); for Damage to the plant by the herbicide (in %): without safener
# Protocol: (§1) The seeds of the crop plants to be treated are laid out in soil in woodfiber pots (diameter ˜ 7 cm), covered with soil and grown in a greenhouse under good conditions for germination and growth. The trial plants were treated at the early leaf stage (BBCH10-BBCH12).
# The herbicides used (component B) were used in the following formulations: • B2.81: WP • B2.85: WP • B2.92: WP • Cinmethylin: EC • Clomazone: WP • Ethofumesate: WP • Flufenacet: SC • Pinoxaden: WP • Saflufenacil: WP • Bicyclopyrone: WP • Picloram: WP • Metazachlor: SC • Flumioxazin: WP • Glyphosate potassium salt: SL • Topramezone: WP
# (§2) The dose of the respective herbicides was chosen here such that it causes an average degree of visually apparent damage (min. 20%, max. 75%) compared to untreated crop plants at the evaluation time on a control group of crop plants without safener treatment that were included in the same trial.
# (§3) In the respective herbicide/safener combinations, the safeners (component A) in the form of wettable powders (WP) were added in the dose specified; in these cases, herbicide and safener are thus applied as a mixture.
# (§4) Application was effected in each case on to the above-ground parts of the plant, at a water application rate corresponding to 300 l/ha and with addition of wetting agent (Mero, 1.5 l/h a).
# In the applications that contained pinoxaden, bicyclopyrone or topramezone, the herbicidal effect was enhanced by additionally adding ammonium sulfate (2 kg/ha).
# (§5) After application, the plants were cultivated under good growth conditions in a greenhouse. On account of the different mechanisms of action of the herbicides used, the damaging effect of the herbicides was fully manifested at different times depending on the herbicide, and this in turn forms the basis for assessment of the safener action in the mixtures. Therefore, the damage was scored visually, depending on the herbicide/mixture, between 11 and 21 days after application.
# (§6) The damage effect was assessed visually on a scale of 0-100% by comparison with untreated control plants, and averaged over 2 repeats per treatment.
# [2] = system: summer barley crop plant (HORVS: cv. Quench); assay: Reduction in herbicide damage to summer barley by safener, greenhouse post-emergence application, visual scoring; format: in vivo; design: key to Reduction in the damage by safener (difference): difference in % visual damage, 0-100% scale vs untreated plants
# Protocol: as §1
# The herbicides used (component B) were used in the following formulations: • B2.81: WP • B2.85: WP • B2.92: WP • Clomazone: WP • Ethofumesate: WP • Flufenacet: SC • Fluroxypyr: EC • Saflufenacil: WP • Thiencarbazone-methyl: WP • Iodosulfuron-methyl-sodium: WP • Bifenox: WP • Glyphosate potassium salt: SL • Topramezone: WP
# as §2, §3, §4
# In the applications that contained pinoxaden or topramezone, the herbicidal effect was enhanced by additionally adding ammonium sulfate (2 kg/ha).
# as §5, §6
# [3] = herbicide B1.2 (bicyclopyrone) 400 g a.i./ha + safener 100 g a.i./ha
# [4] = herbicide B1.8 (pinoxaden) 200 g a.i./ha + safener 100 g a.i./ha
# [5] = herbicide B2.28 (flufenacet) 2000 g a.i./ha + safener 100 g a.i./ha
# [6] = herbicide B2.28 (flufenacet) 4000 g a.i./ha + safener 100 g a.i./ha
# [7] = herbicide B2.38 (metazachlor) 4000 g a.i./ha + safener 100 g a.i./ha
# [8] = herbicide B2.81 15 g a.i./ha + safener 100 g a.i./ha
# [9] = herbicide B4.28 (topramezone) 300 g a.i./ha + safener 100 g a.i./ha
# [10] = herbicide B5.13 (cinmethylin) 500 g a.i./ha + safener 100 g a.i./ha
# [11] = herbicide B5.13 (cinmethylin) 1000 g a.i./ha + safener 100 g a.i./ha
# [12] = herbicide B5.14 (clomazone) 200 g a.i./ha + safener 100 g a.i./ha
# [13] = herbicide B5.21 (ethofumesate) 2000 g a.i./ha + safener 100 g a.i./ha
# [14] = herbicide B5.26 (flumioxazin) 20 g a.i./ha + safener 100 g a.i./ha
# [15] = herbicide B6.5 (picloram) 400 g a.i./ha + safener 100 g a.i./ha
# [16] = herbicide B7.5 (glyphosate) 400 g a.i./ha + safener 100 g a.i./ha
# [17] = summer barley (HORVS), herbicide B2.28 (flufenacet) 2000 g a.i./ha + safener 100 g a.i./ha
# [18] = summer barley (HORVS), herbicide B2.28 (flufenacet) 4000 g a.i./ha + safener 100 g a.i./ha
# [19] = summer barley (HORVS), herbicide B2.34 (iodosulfuron) 10 g a.i./ha + safener 100 g a.i./ha
# [20] = summer barley (HORVS), herbicide B2.68 (thiencarbazone-methyl) 30 g a.i./ha + safener 100 g a.i./ha
# [21] = summer barley (HORVS), herbicide B2.81 15 g a.i./ha + safener 100 g a.i./ha
# [22] = summer barley (HORVS), herbicide B2.85 5 g a.i./ha + safener 100 g a.i./ha
# [23] = summer barley (HORVS), herbicide B2.92 5 g a.i./ha + safener 100 g a.i./ha
# [24] = summer barley (HORVS), herbicide B4.28 (topramezone) 300 g a.i./ha + safener 100 g a.i./ha
# [25] = summer barley (HORVS), herbicide B5.21 (ethofumesate) 2000 g a.i./ha + safener 100 g a.i./ha
# [26] = summer barley (HORVS), herbicide B6.4 (fluroxypyr) 500 g a.i./ha + safener 100 g a.i./ha
# [27] = summer barley (HORVS), herbicide B7.5 (glyphosate) 400 g a.i./ha + safener 100 g a.i./ha
# [28] = summer barley (HORVS), herbicide B8.6 (bifenox) 600 g a.i./ha + safener 100 g a.i./ha
compound,measurement,setting,value
"Cc1cccc(C)c1N(Cn1cccn1)C(=O)CCl [Compound B2.38, metazachlor, reference compound]",Damage to the plant by the herbicide (in %),[1]; herbicide dose 4000 g a.i./ha,40%
"C#CCN1C(=O)COc2cc(F)c(N3C(=O)C4=C(CCCC4)C3=O)cc21 [Compound B5.26, flumioxazin, reference compound]",Damage to the plant by the herbicide (in %),[1]; herbicide dose 20 g a.i./ha,60%
"COC(=O)COc1nc(-c2ccc(Cl)cc2F)n(-c2ccc(F)cc2F)n1 [Compound A3, methyl {[5-(4-chloro-2-fluorophenyl)-1-(2,4-difluorophenyl)-1H-1,2,4-triazol-3-yl]oxy}acetate]",Reduction in the damage by safener (difference),[1]; [3],25
same,Reduction in the damage by safener (in %),[1]; [3],42%
same,Reduction in the damage by safener (difference),[1]; [4],15
same,Reduction in the damage by safener (in %),[1]; [4],43%
same,Reduction in the damage by safener (difference),[1]; [5],30
same,Reduction in the damage by safener (in %),[1]; [5],100%
same,Reduction in the damage by safener (difference),[1]; [6],40
same,Reduction in the damage by safener (in %),[1]; [6],100%
same,Reduction in the damage by safener (difference),[1]; [7],30
same,Reduction in the damage by safener (in %),[1]; [7],75%
same,Reduction in the damage by safener (difference),[1]; [8],15
same,Reduction in the damage by safener (in %),[1]; [8],21%
same,Reduction in the damage by safener (difference),[1]; [9],20
same,Reduction in the damage by safener (in %),[1]; [9],50%
same,Reduction in the damage by safener (difference),[1]; [10],25
same,Reduction in the damage by safener (in %),[1]; [10],100%
same,Reduction in the damage by safener (difference),[1]; [11],25
same,Reduction in the damage by safener (in %),[1]; [11],100%
same,Reduction in the damage by safener (difference),[1]; [12],15
same,Reduction in the damage by safener (in %),[1]; [12],38%
same,Reduction in the damage by safener (difference),[1]; [13],70
same,Reduction in the damage by safener (in %),[1]; [13],100%
same,Reduction in the damage by safener (difference),[1]; [14],25
same,Reduction in the damage by safener (in %),[1]; [14],42%
same,Reduction in the damage by safener (difference),[1]; [15],20
same,Reduction in the damage by safener (in %),[1]; [15],80%
same,Reduction in the damage by safener (difference),[1]; [16],35
same,Reduction in the damage by safener (in %),[1]; [16],78%
same,Reduction in the damage by safener (difference),[2]; [17],15
same,Reduction in the damage by safener (in %),[2]; [17],50%
same,Reduction in the damage by safener (difference),[2]; [18],35
same,Reduction in the damage by safener (in %),[2]; [18],70%
same,Reduction in the damage by safener (difference),[2]; [19],25
same,Reduction in the damage by safener (in %),[2]; [19],56%
same,Reduction in the damage by safener (difference),[2]; [20],30
same,Reduction in the damage by safener (in %),[2]; [20],100%
same,Reduction in the damage by safener (difference),[2]; [21],70
same,Reduction in the damage by safener (in %),[2]; [21],100%
same,Reduction in the damage by safener (difference),[2]; [22],15
same,Reduction in the damage by safener (in %),[2]; [22],25%
same,Reduction in the damage by safener (difference),[2]; [23],30
same,Reduction in the damage by safener (in %),[2]; [23],46%
same,Reduction in the damage by safener (difference),[2]; [24],40
same,Reduction in the damage by safener (in %),[2]; [24],80%
same,Reduction in the damage by safener (difference),[2]; [25],60
same,Reduction in the damage by safener (in %),[2]; [25],100%
same,Reduction in the damage by safener (difference),[2]; [26],20
same,Reduction in the damage by safener (in %),[2]; [26],100%
same,Reduction in the damage by safener (difference),[2]; [27],50
same,Reduction in the damage by safener (in %),[2]; [27],83%
same,Reduction in the damage by safener (difference),[2]; [28],35
same,Reduction in the damage by safener (in %),[2]; [28],88%
"topramezone [Compound B4.28, reference compound]",Damage to the plant by the herbicide (in %),[1]; herbicide dose 300 g a.i./ha,40%
same,Damage to the plant by the herbicide (in %),"[2]; summer barley (HORVS), herbicide dose 300 g a.i./ha, without safener",50%
"COC(=O)c1cc(Oc2ccc(Cl)cc2Cl)ccc1[N+](=O)[O-] [Compound B8.6, bifenox, reference compound]",Damage to the plant by the herbicide (in %),"[2]; summer barley (HORVS), herbicide dose 600 g a.i./ha, without safener",40%
"Cc1ccccc1CO[C@@H]1C[C@@]2(C(C)C)CC[C@]1(C)O2 (racemic) [Compound B5.13, cinmethylin, reference compound]",Damage to the plant by the herbicide (in %),[1]; herbicide dose 500 g a.i./ha,25%
same,Damage to the plant by the herbicide (in %),[1]; herbicide dose 1000 g a.i./ha,25%
"Nc1c(Cl)c(F)nc(OCC(=O)O)c1Cl [Compound B6.4, fluroxypyr, reference compound]",Damage to the plant by the herbicide (in %),[2]; in vivo,20%
"COc1nn(C(=O)NS(=O)(=O)c2c(C(=O)O)csc2C)c(=O)n1C [Compound B2.68, thiencarbazone, reference compound]",Damage to the plant by the herbicide (in %),"[2]; summer barley (HORVS), herbicide dose 30 g a.i./ha, without safener",30%
"bicyclopyrone [Compound B1.2, reference compound]",Damage to the plant by the herbicide (in %),[1]; herbicide dose 400 g a.i./ha,60%
"Nc1c(Cl)c(Cl)nc(C(=O)O)c1Cl [Compound B6.5, picloram, reference compound]",Damage to the plant by the herbicide (in %),[1]; herbicide dose 400 g a.i./ha,25%
"COc1nc(C)nc(NC(=O)NS(=O)(=O)c2cc(I)ccc2C(=O)O)n1 [Compound B2.34, iodosulfuron, reference compound]",Damage to the plant by the herbicide (in %),[2]; in vivo,45%
"CCc1cc(C)cc(CC)c1-c1c(OC(=O)C(C)(C)C)n2n(c1=O)CCOCC2 [Compound B1.8, pinoxaden, reference compound]",Damage to the plant by the herbicide (in %),[1]; herbicide dose 200 g a.i./ha,35%
